Experimental data taken from article PMC9090415, “Discovery of small molecule inhibitors of Plasmodium falciparum apicoplast DNA polymerase” (Journal of Enzyme Inhibition and Medicinal Chemistry, 2022).

Target: P. falciparum apicoplast DNA polymerase (Pf-apPOL) (Plasmodium falciparum, UniProt Q8ILY1)
Test: Fluorescence-based high-throughput DNA polymerase assay (molecular beacon), primary screen and dose-response;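 on % inhibition Apol 40': compound concentration given in µM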
Format: biochemical
Settings: for DNA Pol: 90 min, 10 µM; for IC50: supplemental file 2, sheet IC50 nontoxic compounds, Pf-apPOL
Description: The HT assay employs a molecular beacon, a stem-loop DNA template with a Cy3 dye and the Black Hole Quencher on the 3′ and 5′ ends of the DNA, respectively. Pf-apPOL concentration is based on a calculated absorptivity of ε280 = 56750 M^−1 cm^−1. Reactions were carried out at 25 °C, using Corning 3575 […] (well-volume, 20 µL). Assays testing for compound inhibition composed of reaction buffer (pH 7.9 in 50 mM potassium acetate, 20 mM Tris-acetate and 10 mM magnesium acetate), Pf-apPOL (20 nM), DNA substrate (20 nM), dNTPs (6 µM), and compound (10 µM in DMSO). The DNA and nucleotide substrates (dNTPs) were at concentrations of 20 nM and 6 µM, respectively, in the assay. Pf-apPOL was incubated in the reaction buffer with dNTPs and the compound of interest (10 µM, in the assay) at 25 °C for 10 min. The DNA substrate was then added and the reaction was allowed to proceed for 90 min at 25 °C.
Each assay plate contained 16 negative controls (no Pf-apPOL, DMSO present) and 16 positive controls (Pf-apPOL present, no DMSO). The fluorescence of each well was determined using a BioTek Synergy Neo fluorescence plate reader using excitation and emission wavelengths of 555 and 570 nm, respectively.
In the above, Min is the average of fluorescence emission of the negative controls (substrate only), Max the average fluorescence emission from the positive controls (enzyme + substrate), and Test the emission from the assays in the presence of compounds (enzyme + compound + substrates). […] […] The IC50 of each compound was determined using Equation (2): (2) IC50= Vmax/(1+ (I/IC50)^n)
In the above, n measures cooperativity, with n > 1 indicating synergistic binding of more than a single molecule of the compound.
To identify apPOL inhibitors we utilised our previously developed high-throughput DNA polymerase assay. The HT assay is based on a molecular beacon DNA template that forms a stem-loop with a Cy3 dye and the Black Hole Quencher on the 3′ and 5′ ends of the DNA, respectively. DNA polymerase activity extends an annealed primer through the stem region, displacing the fluorophore from the quencher, thereby increasing its fluorescence (Figure 1(A)). The assay accurately recapitulates the kinetic behaviour of apPOL, as measured through more conventional low-throughput gel-based assays. The Z′ factor for the assay described here was 0.9 across all plates (data not shown).
Figure 1. High-throughput screening. (A) The fluorescent-based DNA polymerase assay used to screen the compound libraries. The DNA template strand is a hairpin loop with a primer annealed to the loop. The 3’ end of the primer is 11 bases away from the 6 bp duplex. Strand displacement activity of the DNA polymerase separates the Cy3 dye from the Black hole quencher leading to an increase in fluorescent signal. (B) The high-throughput assay workflow. The DNA polymerase is incubated with […] compound for 10 min prior to addition of the hairpin substrate. The reaction is quenched at 3 different time points and the fluorescent signal is measured and % inhibition is determined using the provided equation.

[1] = 'DNA Pol' of the 186 hits list (screen value)
[2] = primary screen value, "DNA Pol"

P. falciparum apicoplast DNA polymerase (Pf-apPOL), sequence (Q8ILY1 entry or part of it): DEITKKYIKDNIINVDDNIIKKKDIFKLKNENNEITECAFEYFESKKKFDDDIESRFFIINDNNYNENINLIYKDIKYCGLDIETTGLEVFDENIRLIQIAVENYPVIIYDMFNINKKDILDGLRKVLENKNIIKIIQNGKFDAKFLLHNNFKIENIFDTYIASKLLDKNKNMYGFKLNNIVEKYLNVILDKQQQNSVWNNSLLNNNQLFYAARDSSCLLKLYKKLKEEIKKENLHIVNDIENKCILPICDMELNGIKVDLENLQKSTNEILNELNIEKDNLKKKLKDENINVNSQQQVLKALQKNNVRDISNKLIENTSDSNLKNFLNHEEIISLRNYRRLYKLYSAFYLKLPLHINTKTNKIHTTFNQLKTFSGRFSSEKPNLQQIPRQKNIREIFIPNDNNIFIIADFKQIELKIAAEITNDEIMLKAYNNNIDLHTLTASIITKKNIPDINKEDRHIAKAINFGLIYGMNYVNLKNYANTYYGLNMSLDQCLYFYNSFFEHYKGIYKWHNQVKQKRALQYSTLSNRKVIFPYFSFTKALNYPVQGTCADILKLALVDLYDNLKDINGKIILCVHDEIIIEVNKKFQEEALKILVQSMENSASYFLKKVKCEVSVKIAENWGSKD

SMILES: C=CC1=C(C)c2cc3[nH]c(cc4nc(cc5[nH]c(cc1n2)c(C)c5CCC(=O)O)C(CCC(=O)O)=C4C)c(C)c3C=C [Molecule 91, C=CC1=C(C)/C/2=C/c3[nH]c(c(c3C=C)C)/C=C/3\N=C(/C=c/4\[nH]/c(=C\C1=N2)/c(C)c4CCC(=O)O)C(=C3C)CCC(=O)O]
- DNA Pol [1]: 102
- % inhibition Apo pol 10' (DRC-1, conc 2.5): 61.8295%
- % inhibition Apo pol 10' (DRC-1, conc 5): 90.2247%
- % inhibition Apo pol 10' (DRC-1, conc 10): 94.5739%
- % inhibition Apo pol 10' (DRC-1, conc 20): 93.6963%
- % inhibition Apo pol 10' (DRC-1, conc 40): 92.3128%
- % inhibition Apo pol 10' (DRC-1, conc 80): 90.9627%
- % inhibition Apol 90' (DRC-1, conc 2.5): 48.9007%
- % inhibition Apol 90' (DRC-1, conc 5): 79.3077%
- % inhibition Apol 90' (DRC-1, conc 10): 94.695%
- % inhibition Apol 90' (DRC-1, conc 20): 95.5429%
- % inhibition Apol 90' (DRC-1, conc 40): 94.7622%
- % inhibition Apol 90' (DRC-1, conc 80): 94.048%
- % inhibition apPOL 180' (DRC-1, conc 2.5): 35.65%
- % inhibition apPOL 180' (DRC-1, conc 5): 71.3476%
- % inhibition apPOL 180' (DRC-1, conc 10): 94.4178%
- % inhibition apPOL 180' (DRC-1, conc 20): 96.2534%
- % inhibition apPOL 180' (DRC-1, conc 40): 95.7686%
- % inhibition apPOL 180' (DRC-1, conc 80): 95.2166%
- % inhibition Apo pol 5' (DRC-2, conc 2.5): 48%
- % inhibition Apo pol 5' (DRC-2, conc 5): 50%
- % inhibition Apo pol 5' (DRC-2, conc 10): 53%
- % inhibition Apo pol 5' (DRC-2, conc 20): 49%
- % inhibition Apo pol 5' (DRC-2, conc 40): 49%
- % inhibition Apo pol 5' (DRC-2, conc 80): 48%
- % inhibition Apo pol 5' (DRC-2, concentration 2.5): 48%
- % inhibition Apo pol 5' (DRC-2, concentration 20): 49%
- % inhibition Apo pol 5' (DRC-2, concentration 40): 49%
- % inhibition Apo pol 5' (DRC-2, concentration 80): 48%
- % inhibition Apol 40' (DRC-2, conc 2.5): 44%
- % inhibition Apol 40' (DRC-2, conc 5): 57%
- % inhibition Apol 40' (DRC-2, conc 10): 70%
- % inhibition Apol 40' (DRC-2, conc 20): 70%
- % inhibition Apol 40' (DRC-2, conc 40): 69%
- % inhibition Apol 40' (DRC-2, conc 80): 69%
- % inhibition Apol 40' (DRC-2, concentration 10): 70%
- % inhibition Apol 40' (DRC-2, concentration 20): 70%
- % inhibition Apol 40' (DRC-2, concentration 40): 69%
- % inhibition Apol 40' (DRC-2, concentration 80): 69%
- % inhibition ApPOL 90' (DRC-2, conc 2.5): 40%
- % inhibition ApPOL 90' (DRC-2, conc 5): 56%
- % inhibition ApPOL 90' (DRC-2, conc 10): 74%
- % inhibition ApPOL 90' (DRC-2, conc 20): 76%
- % inhibition ApPOL 90' (DRC-2, conc 40): 75%
- % inhibition ApPOL 90' (DRC-2, conc 80): 75%
- % inhibition ApPOL 90' (DRC-2, concentration 20): 76%
- % inhibition ApPOL 90' (DRC-2, concentration 40): 75%
- % inhibition ApPOL 90' (DRC-2, concentration 80): 75%
- % inhibition apPOL 180' (DRC-2, conc 2.5): 25%
- % inhibition apPOL 180' (DRC-2, conc 5): 49%
- % inhibition apPOL 180' (DRC-2, conc 10): 76%
- % inhibition apPOL 180' (DRC-2, conc 20): 80%
- % inhibition apPOL 180' (DRC-2, conc 40): 80%
- % inhibition apPOL 180' (DRC-2, conc 80): 79%
- % inhibition apPOL 180' (DRC-2, concentration 5): 49%
- % inhibition apPOL 180' (DRC-2, concentration 10): 76%
- % inhibition apPOL 180' (DRC-2, concentration 20): 80%
- % inhibition apPOL 180' (DRC-2, concentration 40): 80%
- DNA Pol [2]: 102

SMILES: O=C(O)CCS(=O)(=O)c1ccc(-c2ccc(S(=O)(=O)CCC(=O)O)cc2)cc1 [Molecule 32]
- IC50: 5.7 µM

SMILES: O=C(Cn1ccc2c(=O)[nH]ccc21)Nc1ccccc1Cl [Molecule 19]
- IC50: 6.87 µM

SMILES: CN(C)C=C1SCc2ccccc2C1=O [Molecule 77]
- IC50: 23.7 µM

SMILES: Cc1cccc(C2=N/C(=C\c3ccc([N+](=O)[O-])o3)C(=O)O2)c1 [KU0058960]
- DNA Pol [1]: 79
- % inhibition Apo pol 10' (DRC-1, conc 2.5): 31.9938%
- % inhibition Apo pol 10' (DRC-1, conc 5): 37.9558%
- % inhibition Apo pol 10' (DRC-1, conc 10): 61.5267%
- % inhibition Apo pol 10' (DRC-1, conc 20): 80.2962%
- % inhibition Apo pol 10' (DRC-1, conc 40): 86.7912%
- % inhibition Apo pol 10' (DRC-1, conc 80): 87.9713%
- % inhibition Apol 90' (DRC-1, conc 2.5): 16.0415%
- % inhibition Apol 90' (DRC-1, conc 5): 19.2427%
- % inhibition Apol 90' (DRC-1, conc 10): 39.4275%
- % inhibition Apol 90' (DRC-1, conc 20): 66.6869%
- % inhibition Apol 90' (DRC-1, conc 40): 86.2407%
- % inhibition Apol 90' (DRC-1, conc 80): 92.5412%
- % inhibition apPOL 180' (DRC-1, conc 2.5): 6.3408%
- % inhibition apPOL 180' (DRC-1, conc 5): 6.493%
- % inhibition apPOL 180' (DRC-1, conc 10): 24.2065%
- % inhibition apPOL 180' (DRC-1, conc 20): 52.0492%
- % inhibition apPOL 180' (DRC-1, conc 40): 83.7016%
- % inhibition apPOL 180' (DRC-1, conc 80): 94.2271%
- % inhibition Apo pol 5' (DRC-2, conc 2.5): 15%
- % inhibition Apo pol 5' (DRC-2, conc 5): 25%
- % inhibition Apo pol 5' (DRC-2, conc 10): 37%
- % inhibition Apo pol 5' (DRC-2, conc 20): 45%
- % inhibition Apo pol 5' (DRC-2, conc 40): 51%
- % inhibition Apo pol 5' (DRC-2, conc 80): 48%
- % inhibition Apo pol 5' (DRC-2, concentration 10): 37%
- % inhibition Apol 40' (DRC-2, conc 2.5): 12%
- % inhibition Apol 40' (DRC-2, conc 5): 23%
- % inhibition Apol 40' (DRC-2, conc 10): 37%
- % inhibition Apol 40' (DRC-2, conc 20): 50%
- % inhibition Apol 40' (DRC-2, conc 40): 64%
- % inhibition Apol 40' (DRC-2, conc 80): 69%
- % inhibition Apol 40' (DRC-2, concentration 10): 37%
- % inhibition ApPOL 90' (DRC-2, conc 2.5): 9%
- % inhibition ApPOL 90' (DRC-2, conc 5): 19%
- % inhibition ApPOL 90' (DRC-2, conc 10): 33%
- % inhibition ApPOL 90' (DRC-2, conc 20): 47%
- % inhibition ApPOL 90' (DRC-2, conc 40): 66%
- % inhibition ApPOL 90' (DRC-2, conc 80): 74%
- % inhibition apPOL 180' (DRC-2, conc 2.5): 1.68%
- % inhibition apPOL 180' (DRC-2, conc 5): 7%
- % inhibition apPOL 180' (DRC-2, conc 10): 20%
- % inhibition apPOL 180' (DRC-2, conc 20): 36%
- % inhibition apPOL 180' (DRC-2, conc 40): 63%
- % inhibition apPOL 180' (DRC-2, conc 80): 78%
- DNA Pol [2]: 79

SMILES: CSC1=C(C#N)C(=C(C#N)C#N)NC(c2ccccc2)=N1 [Molecule 2]
- IC50: 5.66 µM
